Molecular target: T1, Macrophage migration inhibitory factor (Homo sapiens, UniProt P14174)
T1 sequence (P14174 whole entry): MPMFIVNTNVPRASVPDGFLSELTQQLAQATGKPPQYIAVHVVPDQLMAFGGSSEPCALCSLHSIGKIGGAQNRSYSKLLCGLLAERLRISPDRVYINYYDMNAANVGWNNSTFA
Assay: MIF Enzymatic Assay
Protocol: Assays were performed in small-volume clear-bottom black 96 or 384-well polystyrene plates (Greiner Bio-One). First, 2 μL of the enzyme solution containing 6 nM of MIF in DPBS, 0.025% w/v BSA, and 300 μM CHAPS was dispensed onto sample and negative control wells using Multidrop Combi with metallic tip cassettes (Thermo Fisher Scientific) previously treated with Sigmacote. Then, 2 μL of the same buffer without MIF was dispensed onto positive control wells. […] In order to remove bubbles, the plate was centrifuged in an Allegra 25R centrifuge (Beckman Coulter, Inc., Brea, CA) at 1000 rpm for 2 min at room temperature. Then, the plate was read in an EnVision. Final concentrations of enzyme and substrate were 3 nM and 1.5 mM, respectively. Initial rates were calculated for each well as the slope of the absorbance progress curve.

Row | IC50 | Structure (SMILES)
1 | 575 nM | COc1cc(N2CCC(O)C2)ccc1C(=O)NCc1nnc(-c2cccs2)o1 (stereo not drawn) [US11884682, Compound 78]
2 | 708 nM | COc1cc(NCCO)ccc1C(=O)NCc1nnc(-c2cccs2)o1 [US11884682, Compound 79]
3 | 2510 nM | COc1cc(OC2CCNC2)ccc1C(=O)NCc1nnc(-c2cccs2)o1 (stereo not drawn) [US11884682, Compound 81]
